Results reported in ChEMBL document CHEMBL1135342, “Synthesis and evaluation of thymidine-5'-O-monophosphate analogues as inhibitors of Mycobacterium tuberculosis thymidylate kinase” (Bioorg Med Chem Lett, 2002).

Target: T1, Thymidylate kinase (Mycobacterium tuberculosis) (UniProt P9WKE1)
T1 sequence (whole entry): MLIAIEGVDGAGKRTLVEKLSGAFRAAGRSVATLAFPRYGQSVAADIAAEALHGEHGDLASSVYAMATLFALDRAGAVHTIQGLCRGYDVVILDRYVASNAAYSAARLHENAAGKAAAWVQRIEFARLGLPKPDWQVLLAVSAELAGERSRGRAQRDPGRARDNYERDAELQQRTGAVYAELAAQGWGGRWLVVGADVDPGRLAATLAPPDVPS
Assay: Enzyme Kinetic constant was determined in the presence of Mycobacterium tuberculosis thymidine monophosphate kinase

**Q.** Which Vm (uM min-1 (mg of protein)-1) does the source give for Cc1cn(-c2ccc(COP(=O)(O)O)o2)c(=O)[nH]c1=O here?
**A.** 0.16

**Q.** With Cc1cn([C@H]2C[C@H](O)[C@@H](COP(=O)(O)O)O2)c(=O)[nH]c1=O as the compound, how does the Vm (uM min-1 (mg of protein)-1) read?
**A.** 10.6

**Q.** Which Vm (uM min-1 (mg of protein)-1) does the source give for O=c1[nH]c(=O)n([C@H]2C[C@H](O)[C@@H](COP(=O)(O)O)O2)cc1I here?
**A.** 7.5

**Q.** O=c1[nH]c(=O)n([C@H]2C[C@H](O)[C@@H](COP(=O)(O)O)O2)cc1Br was tested. Which Vm (uM min-1 (mg of protein)-1) did it give?
**A.** 9.8

**Q.** With O=c1ccn([C@H]2C[C@H](O)[C@@H](COP(=O)(O)O)O2)c(=O)[nH]1 as the compound, how does the Vm (uM min-1 (mg of protein)-1) read?
**A.** 3.5

**Q.** Which Vm (uM min-1 (mg of protein)-1) does the source give for Cc1cn([C@H]2C[C@H](F)[C@@H](COP(=O)(O)O)O2)c(=O)[nH]c1=O here?
**A.** 0.11

**Q.** O=c1[nH]c(=O)n([C@H]2C[C@H](O)[C@@H](COP(=O)(O)O)O2)cc1F was tested. Which Vm (uM min-1 (mg of protein)-1) did it give?
**A.** 4.7
